Counter-ions that a name gives are not always drawn.
What was measured:
HCT116 [1] = assay: viability inhibition vs untreated; higher = more cytotoxic; conditions: 72 h
HCT116 [2] = conditions: 72 h
Method: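 HCT116 control and MTA1-KO (CRISPR) HCT116 cells were seeded in 384-well plates (800 cells/well), treated 16 h later with 237 metabolism-related anticancer drugs at five doses (10 uM, 2 uM, 400 nM, 80 nM, 16 nM) for 72 h, two replicates; viability by CCK8. Values are % inhibition of viability relative to untreated cells, plus fitted IC50.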

| SMILES | viability inhibition (HCT116 [1]; genotype: MTA1-KO, 16 nM) | viability inhibition (HCT116 [1]; genotype: MTA1-KO, 80 nM) | viability inhibition (HCT116 [1]; genotype: MTA1-KO, 400 nM) | viability inhibition (HCT116 [1]; genotype: MTA1-KO, 2000 nM) | viability inhibition (HCT116 [1]; genotype: MTA1-KO, 10000 nM) | viability inhibition (HCT116 [1]; genotype: control, 16 nM) | viability inhibition (HCT116 [1]; genotype: control, 80 nM) | viability inhibition (HCT116 [1]; genotype: control, 400 nM) | viability inhibition (HCT116 [1]; genotype: control, 2000 nM) | viability inhibition (HCT116 [1]; genotype: control, 10000 nM) | IC50 (HCT116 [2]; genotype: MTA1-KO) | IC50 (HCT116 [2]; genotype: control) |
| --- | --- | --- | --- | --- | --- | --- | --- | --- | --- | --- | --- | --- |
| NS(=O)(=O)c1cc2c(cc1Cl)NC(CSCc1ccccc1)=NS2(=O)=O [Benzthiazide] | -4.89% | -8.13% | -6.12% | -11.1% | 36.1% | -2.68% | 0.658% | -1.2% | 7.85% | 44.8% | > 10 µM | > 10 µM |
| c1ccc(-c2ccc(C(c3ccccc3)n3ccnc3)cc2)cc1 (stereo not given) [Bifonazole] | -14.7% | -10.9% | -14.8% | -16.2% | 16.8% | 7.85% | -6.02% | -12.2% | -12% | 18.9% | > 10 µM | > 10 µM |
| C[C@H]1CCC/C=C/[C@@H]2C[C@H](O)C[C@H]2[C@H](O)/C=C/C(=O)O1 [Brefeldin A] | -15.6% | -20.1% | 104% | 105% | 105% | 4.87% | -4.17% | 112% | 109% | 110% | 0.255 µM | 0.166 µM |
| CCN[C@H]1CN(CCCOC)S(=O)(=O)c2sc(S(N)(=O)=O)cc21 [Brinzolamide] | -13.1% | -25.7% | -24.4% | -29.9% | -25.2% | -12.4% | -11.9% | -8.93% | -15.3% | -13.6% | > 10 µM | > 10 µM |
| C[C@]12CC[C@H](O)C[C@H]1CC[C@@H]1[C@@H]2CC[C@]2(C)[C@@H](c3ccc(=O)oc3)CC[C@]12O [Bufalin] | 15.4% | 39% | 58.6% | 83.8% | 91% | 65.7% | 67.6% | 69.3% | 77.6% | 80.9% | 0.143 µM | < 0.016 µM |
| O=C(Cc1cccc(OC(F)(F)F)c1)Nc1ccc(CCCCc2nnc(NC(=O)Cc3ccccn3)s2)nn1 [CB839] | -4.17% | 2.28% | -14.1% | 1.81% | 3.54% | 0.501% | 13.6% | 24% | 20.5% | 20.2% | > 10 µM | > 10 µM |
| CC(=O)c1ccc2c(c1)c1cc(C(C)=O)ccc1n2CCNC(C)C [CBL0137 hydrochloride] | -9.26% | -16.6% | 65.6% | 114% | 109% | 7.74% | -9.1% | 81.5% | 108% | 103% | 0.379 µM | 0.355 µM |
| CCN1C(=O)CNc2ncc(-c3ccc(-c4ncn[nH]4)nc3C)nc21 [CC115] | 5.59% | -19.9% | -8.79% | 27.2% | 81.2% | -13.9% | -10.3% | -8.79% | 7.12% | 74.9% | 2.13 µM | 4.96 µM |
| COC1CCC(N2C(=O)CNc3ncc(-c4ccc(C(C)(C)O)nc4)nc32)CC1 (stereo not given) [CC223] | -8.46% | -17.5% | -1.64% | 13.1% | 22.1% | 11.3% | -6.69% | -3.2% | -6.07% | 35.3% | > 10 µM | > 10 µM |
| O=C(O)c1ccc(C=C2SC(=S)N(c3cccc(C(F)(F)F)c3)C2=O)cc1 [CFTRinh172] | -5.28% | -12.6% | -0.878% | -4.39% | 25.2% | -6.21% | -18.3% | -11.9% | 16% | 64.3% | > 10 µM | 5.31 µM |
